Measurements as given in US5585367A (priority 1990, dated 1996).
Like-named read-outs stand apart in the source and are kept apart here.

Legend:
in vitro [1] = conditions: human, molt-3 cells, % of dead cells
[2] = test system: genes "GAG", "LTR" and "ENV" of the HIV-1 provirus; assay: Integration of viral genome into chromosomic DNA of Supt-1 cells (PCR); type: cell-based; conditions: HIV-1 treated with 1/100 dilution
Experimental: By means of a genetic amplification through a thermostable polymerase, the presence of genes "GAG", "LTR" and "ENV" of the HIV-1 provirus is evidenced. This method is called P.C.R. Polymerase chain Reaction) (Chin-Yih Ou et al., Sciences 239, 295-297, 1988).
Said method is applied for detecting HIV-1 provirus in the genome of Supt-1 cells inoculated with HIV-1 virus incubated with […] (dilution 1/100), as described in Example 8
Amplified oligonucleotides, UV visible by means of ethidium bromide appear only in the tubes corresponding to an inoculation with HIV-1 viruses which were not treated with the active substance.
One proceeds as in Example 11(c). The search of genes "GAG", "LTR" and "ENV" has been made in cellular cultures inoculated with a virus incubated for 15 minutes with the active substance. This search is appeared as being negative, and thus it can be concluded that 1.1'-azobisformamide at the dosage of 35 μgr/ml protects the cells against infection by HIV-1.
Examples 10c and 11c disclose a more accurate method than the ELISA test for examining whether the inoculated cells contain HIV-1 at the end of the assay, i.e., the PCR-Method.

HIV-1 [3] = type: cell-based
in vitro [4] = conditions: human, supt-1 cells
[5] = test system: lymphocyte cellular lines; assay: Toxicity for human lymphocyte cellular lines; type: cell-based; conditions: even after 24 hours
[6] = test system: Molt-3 cells infected by HTLVIII-B
HIV-1 [7] = type: cell-based; remark: listed apart in the source
[8] = test system: human blood cell glutathione; conditions: N. S. KOSOWER et al. (1969); cited from earlier work
[9] = test system: HIV strain of the patient; assay: Resistance of the patient's HIV strain (course of treatment; gene sequencing of viral RNA); conditions: for genetic resistance of the patient's strain: mutations in codons 67, 70, 184, 215 and 219; for resistance, concomitant medication: patient of Example 27, DDI, then DDI and DDC
wild HIV-1 strains = assay: Phenotypic resistance of wild HIV-1 strains; type: cell-based; conditions: strains marked * (Wild A, B, C, F, G)

Q: For `CN(C)C(=O)N=NC(=O)N(C)C` [1.1'-azobisdimethylformamide], which cytotoxicity at 1 min (in vitro [1]) is on record?
A: 12.7%

Q: What about the cytotoxicity at 10 min (in vitro [1]) of the same compound?
A: 14%

Q: What about the cytotoxicity at 0.5 h (in vitro [1]) of the same compound?
A: 17.1%

Q: What about the “HIV-1 provirus within Supt-1 cells” value [2] of the same compound?
A: totally absent

Q: What about the “effectiveness up to the 25th day” value (HIV-1 [3]) of the same compound?
A: effectiveness of this active substance is maintained

Q: What about the “infection of sound Supt-1 cells by treated HIV” value (HIV-1 [3]) of the same compound?
A: is not able to infect the sound Supt-1 cells

Q: What about the “protection of Supt-1 cells” value (HIV-1 [3]) of the same compound?
A: has this effect

Q: What about the cytotoxicity at 0 h (in vitro [4]) of the same compound?
A: 26%

Q: And the cytotoxicity at 1 h (in vitro [4])?
A: 24%

Q: What about the cytotoxicity at 5 h (in vitro [4]) of the same compound?
A: 28%

Q: What about the “cellular viability of Supt-1 cells” value (Supt-1 cells) of the same compound?
A: does not decrease the cellular viability

Q: And the “toxicity against sound Supt-1 cells” value (Supt-1 cells)?
A: no toxicity against sound Supt-1 cells

Q: What about the “toxicity for human Supt-1 cells” value (Supt-1 cells) of the same compound?
A: no toxicity

Q: What about the “toxicity for human lymphocyte cellular lines” value [5] of the same compound?
A: no toxicity

Q: And the “mortality of the infected cells” value ([6]; after 30 minutes, even at dilution 1/3000)?
A: mortality of the infected cells is doubled

Q: What about the “Number of dead cells” value ([6]; dilution 1/500, 1 min) of the same compound?
A: 9

Q: What about the “Number of living cells” value ([6]; dilution 1/500, 1 min) of the same compound?
A: 62

Q: And the “Number of dead cells” value ([6]; dilution 1/500, 10 min)?
A: 11

Q: What about the “Number of living cells” value ([6]; dilution 1/500, 10 min) of the same compound?
A: 67

Q: And the “Number of dead cells” value ([6]; dilution 1/500, 30 min)?
A: 12

Q: And the “Number of living cells” value ([6]; dilution 1/500, 30 min)?
A: 58

Q: What about the “Number of dead cells” value ([6]; dilution 1/1500, 30 min) of the same compound?
A: 15

Q: What about the “Number of living cells” value ([6]; dilution 1/1500, 30 min) of the same compound?
A: 70

Q: What about the “Number of dead cells” value ([6]; dilution 1/3000, 30 min) of the same compound?
A: 12

Q: What about the “Number of living cells” value ([6]; dilution 1/3000, 30 min) of the same compound?
A: 58

Q: And the “% of dead cells” value ([6]; human, molt-3 cells, 0.5 h)?
A: 17.6%

Q: What about the cytopathogenic effect (HIV-1 [7]) of the same compound?
A: no cytopathogenic effect was observed

Q: And the “intracellular oxidising action on human blood cell glutathione” value [8]?
A: intracellular oxidising action on human blood cell glutathione

Q: What does the source list for `O=c1[nH]cnc2c1ncn2[C@H]1CC[C@@H](CO)O1` [DDI]?
A: genetic resistance of the patient's strain [9]: genetically resistant; resistance, concomitant medication [9]: stopped because of resistance

Q: For `Nc1ccn([C@@H]2CS[C@H](CO)O2)c(=O)n1` [3TC], which “genetic resistance of the patient's strain” value [9] is on record?
A: genetically resistant

Q: With `Cc1cn([C@H]2C[C@H](N=[N+]=[N-])[C@@H](CO)O2)c(=O)[nH]c1=O` [AZT, 3'-azido-3'-desoxythymidine] as the compound, how does the “phenotypic resistance to AZT” value (wild HIV-1 strains) read?
A: Phenotypically resistant

Q: What about the “genetic resistance of the patient's strain” value [9] of the same compound?
A: genetically resistant

Q: What does the source list for `Nc1ccn([C@H]2CC[C@@H](CO)O2)c(=O)n1` [DDC]?
A: genetic resistance of the patient's strain [9]: genetically resistant; resistance, concomitant medication [9]: stopped because of resistance
